Experimental findings from ChEMBL document CHEMBL1149886, “Natural and non-natural prenylated chalcones: synthesis, cytotoxicity and anti-oxidative activity” (Bioorg Med Chem, 2008) are described below.

One experiment concerns HeLa. In words: Cytotoxicity against human HeLa cells by MTT assay. Type of experiment: functional, cell-based.
As a reminder, the IC50 is the concentration at which inhibition is half-maximal. A low value points to inhibition by little substance. Consider `COc1ccc(/C=C/C(=O)c2c(OC)cc(O)c(CC=C(C)C)c2O)cc1OC`, for which it took 17.1 µM to reach half-maximal inhibition (IC50).
`COc1cc(O)c(CC=C(C)C)c(O)c1C(=O)/C=C/c1cc(O)cc(O)c1` came in with an IC50 of 3.2 µM.
`COc1cc(O)c(CC=C(C)C)c(O)c1C(=O)/C=C/c1ccc(O)cc1` [XANTHOHUMOL]: the half-maximal inhibitory concentration (IC50) was determined as 9.4 µM.
As for `COc1cc(O)c(CC=C(C)C)c(O)c1C(=O)/C=C/c1ccc(O)c(O)c1`, inhibition was half-maximal at 2.5 µM (IC50).
`CC(C)=CCc1c(O)cc(O)c(C(=O)/C=C/c2ccc(O)cc2)c1O` [DEMETHYLXANTHOHUMOL] came in with an IC50 of 16.5 µM.
`COc1cc(O)c(C(=O)/C=C/c2ccc(O)cc2)c(OC)c1CC=C(C)C` registered an IC50 of 25.6 µM.
Regarding `COc1cc(O)cc(O)c1C(=O)/C=C/c1ccc(O)c(O)c1`, half-maximal inhibition (IC50) required 14.8 µM.
With `COc1cc(O)c(CC=C(C)C)c(O)c1C(=O)/C=C/c1ccccc1O`, it took 5.9 µM to reach half-maximal inhibition (IC50).
As to `COc1cc(O)c(CC=C(C)C)c(O)c1C(=O)/C=C/c1cccc(O)c1`, the half-inhibitory concentration (IC50) was 4.8 µM.
Consider `COc1cc(O)cc(O)c1C(=O)/C=C/c1ccc(O)cc1` [HELICHRYSETIN], for which the IC50 worked out at 5.2 µM.
For the compound `COc1cc(O)c(C(=O)/C=C/c2ccc(O)cc2)c(O)c1CC=C(C)C` [XANTHOGALENOL], inhibition was half-maximal at 28.3 µM (IC50).
Still for that read-out and setting: in the case of `COc1cc(O)c(CC=C(C)C)c(O)c1C(=O)/C=C/c1cc(O)c(O)c(O)c1` it was 30.3 µM; in that of `COc1cc(OC)c(C(=O)/C=C/c2ccc(O)cc2)c(O)c1CC=C(C)C`, 11.8 µM.

System in another experiment: not listed separately
In words: Antioxidant activity assessed as trolox equivalent at 0.25 to 1.5 uM by ORAC-fluorescein assay. Type of experiment: functional.
Turning to `COc1cc(O)c(CC=C(C)C)c(O)c1C(=O)/C=C/c1ccc(O)cc1` [XANTHOHUMOL], the Activity worked out at 2.3.
Consider `CC(C)=CCc1c(O)cc(O)c(C(=O)/C=C/c2ccc(O)cc2)c1O` [DEMETHYLXANTHOHUMOL], for which the Activity was 3.8.
In the case of `COc1cc(O)c(C(=O)/C=C/c2ccc(O)cc2)c(OC)c1CC=C(C)C`, the Activity was 1.5.
Regarding `COc1cc(O)cc(O)c1C(=O)/C=C/c1ccc(O)c(O)c1`, the Activity turned out to be 3.
For the compound `COc1cc(O)c(CC=C(C)C)c(O)c1C(=O)/C=C/c1ccccc1O`, the Activity is 2.3.
Turning to `COc1cc(O)c(CC=C(C)C)c(O)c1C(=O)/C=C/c1cccc(O)c1`, the Activity came out at 2.7.
In the case of `COc1cc(O)c(C(=O)/C=C/c2ccc(O)cc2)c(O)c1CC=C(C)C` [XANTHOGALENOL], the Activity was 1.8.

System in a further experiment: not listed separately
Put plainly: Antioxidant activity assessed as trolox equivalent at 0.1 to 1.5 uM by ORAC-fluorescein assay. Type of experiment: functional.
In the case of `COc1cc(OC)c(C(=O)/C=C/c2ccc(O)cc2)c(O)c1CC=C(C)C`, the Activity turned out to be 3.8.

System in another experiment: not listed separately
Put plainly: Antioxidant activity assessed as trolox equivalent at 0.1 to 1 uM by ORAC-fluorescein assay. Type of experiment: functional.
In the case of `COc1cc(O)c(CC=C(C)C)c(O)c1C(=O)/C=C/c1cc(O)cc(O)c1`, the Activity was 2.9.
As for `COc1cc(O)c(CC=C(C)C)c(O)c1C(=O)/C=C/c1ccc(O)c(O)c1`, the Activity came out at 3.1.
For `COc1cc(O)cc(O)c1C(=O)/C=C/c1ccc(O)cc1` [HELICHRYSETIN], the Activity is 4.4.
`COc1cc(O)c(CC=C(C)C)c(O)c1C(=O)/C=C/c1cc(O)c(O)c(O)c1`: the Activity came out at 1.1.

System in another experiment: not listed separately
In words: Antioxidant activity assessed as trolox equivalent at 0.5 to 2.0 uM by ORAC-fluorescein assay. The format is functional.
On to `COc1ccc(/C=C/C(=O)c2c(OC)cc(O)c(CC=C(C)C)c2O)cc1OC`, for which the Activity is 0.9.

System in the next experiment: not listed separately
Put plainly: Antioxidant activity assessed as trolox equivalent at 0.2 to 0.6 uM by ORAC-fluorescein assay. Type of experiment: functional.
For `O=c1c(O)c(-c2ccc(O)c(O)c2)oc2cc(O)cc(O)c12`, the Activity was 10.5.

System in the next experiment: not listed separately
Put plainly: Antioxidant activity assessed as trolox equivalent at 0.3 to 1 uM by ORAC-fluorescein assay. Type of experiment: functional.
Regarding `COc1cc(/C=C/C(=O)O)ccc1O`, the Activity was 4.47.

System in a further experiment: not listed separately
Put plainly: Antioxidant activity assessed as trolox equivalent at 0.4 to 1 uM by ORAC-fluorescein assay. Type of experiment: functional.
As to `O=C(O)/C=C/c1ccc(O)cc1`, the Activity came to 4.51.
